From patent US20110237533A1, “NOVEL POLYPHENOL COMPOUND” (priority 2008, published 2011)
Like-named read-outs stand apart in the source and are kept apart here.

Molecular target: T1, pancreatic lipase derived from swine (Sus scrofa, UniProt P00591)
T1 construct: purchased Sigma Ltd
T1 sequence (P00591 1-450): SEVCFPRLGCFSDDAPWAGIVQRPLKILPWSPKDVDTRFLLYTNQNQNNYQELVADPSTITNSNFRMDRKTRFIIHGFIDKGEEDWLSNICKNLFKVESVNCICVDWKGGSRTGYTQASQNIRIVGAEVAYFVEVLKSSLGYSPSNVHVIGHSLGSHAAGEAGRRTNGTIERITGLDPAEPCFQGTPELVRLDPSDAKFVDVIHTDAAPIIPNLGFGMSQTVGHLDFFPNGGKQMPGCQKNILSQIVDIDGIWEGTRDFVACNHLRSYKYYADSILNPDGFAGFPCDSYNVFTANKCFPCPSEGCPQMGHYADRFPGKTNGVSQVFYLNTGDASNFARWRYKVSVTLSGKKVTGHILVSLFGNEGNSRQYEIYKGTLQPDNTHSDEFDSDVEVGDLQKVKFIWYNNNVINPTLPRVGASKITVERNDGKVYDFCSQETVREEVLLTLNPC
Experiment: lipase inhibitory test (4-MUO substrate, fluorescence)
Format: biochemical
Settings: read-out: lipase inhibitory activity (%)

inhibition at 250 µM (sample concentration 250 μM, 4-MUO substrate, 37° C., 30 minutes)	Structure (SMILES)	inhibition at 250 µM
50%	O=C(O)c1cc(O)c(O)c(O)c1 [gallic acid]	
	O=c1c(O)c(-c2ccc(O)c(O)c2)oc2cc(O)cc(O)c12 [quercetin]	64.3%
